Data on five molecules can be found in paper PMC11011441, “Bioactive Compounds and Potential Health Benefits through Cosmetic Applications of Cherry Stem Extract” (International Journal of Molecular Sciences, 2024).

Common to all, as to assay type: biochemical
For one assay, the system named is elastase. As to the kind of experiment: Elastase inhibition (MeOSuc-Ala-Ala-Pro-Val-pNa hydrolysis). The note with it: at 51.26 mg/L. How it is done:
(§1) The potential of cherry stem extract to inhibit hyaluronidase (HYALase), collagenase, elastase, tyrosinase, and xanthine oxidase enzymes was evaluated. The methods were carried out following previous studies.
The assessment of elastase enzyme inhibition was based on the release of p-nitroaniline resulting from the hydrolysis of the substrate MeOSuc-Ala-Ala-Pro-Val-pNa by elastase. The quantity of p-nitroaniline was gauged through absorbance readings at 405 nm. Elastatinal (ELA) was employed as the control for elastase inhibition. The control result was stated as % inhibition.
(§2) Results for cherry stem extract were presented as IC50 values at various extract concentrations, except for the enzyme tyrosinase, which was presented as IC55 value at various extract concentrations. All evaluations were performed in triplicate.

The nature of assay [1]: Hypochlorous acid scavenging (oxidation of DHR to rhodamine). The note with it: radical scavenging. How it is done: (§3) The ability of cherry stem extract to inhibit superoxide radical (O2^·−), hypochlorous acid (HOCl), and nitric oxide (NO^·) was evaluated. […] The scavenging properties of cherry stem extract and positive controls against the O2^·− radical were assessed colorimetrically by reduction of NBT to diformazan purple. The ability of the cherry stem extract to inhibit HOCl by inducing the oxidation of DHR to rhodamine was determined. The scavenging activity of cherry stem extract against NO^· was determined by oxidation of DAF-2. To assess the inhibition of O2^·−, NO^·, and HOCl radicals, epicatechin (EPI) and gallic acid (GA) were employed as reference controls. All results were expressed as IC50 value using different concentrations of cherry stem extract and all measurements were performed in triplicate.

The test system of the next assay is hyaluronidase (HYALase). As to the kind of experiment: HYALase inhibition assay (turbidity at 600 nm). How it is done: The potential of cherry stem extract to inhibit hyaluronidase ([…]), collagenase, elastase, tyrosinase, and xanthine oxidase enzymes was evaluated. The methods were carried out following previous studies. The […] inhibition assay involves quantifying the reduction in transmitted light intensity caused by particles generated from the breakdown of hyaluronic acid (HYAL) by the […] enzyme. Absorbance readings were taken at 600 nm. EPI and GA were employed as controls to evaluate […] inhibition. The outcomes from the EPI and GA controls were reported as IC20 values. Results for cherry stem extract were presented as IC50 values at various extract concentrations, except for the enzyme tyrosinase, which was presented as IC55 value at various extract concentrations. All evaluations were performed in triplicate.

The nature of assay [2]: Superoxide radical scavenging (reduction of NBT to diformazan). How it is done: as §3
The nature of assay [3]: Nitric oxide scavenging (oxidation of DAF-2). The note with it: radical scavenging. How it is done: as §3
Another assay relates to tyrosinase. As to the kind of experiment: Tyrosinase inhibition (Colorimetric Tyrosinase Inhibitor Detection Kit). The note with it: at 21.3 mg/L. How it is done: The potential of cherry stem extract to inhibit hyaluronidase ([…]), collagenase, elastase, tyrosinase, and xanthine oxidase enzymes was evaluated. The methods were carried out following previous studies. The evaluation of tyrosinase inhibition was conducted using a “Colorimetric Tyrosinase Inhibitor Detection Kit” sourced from Sigma-Aldrich, USA. Inhibition control was established with kojic acid (KA). The control outcome was represented as % inhibition. Results for cherry stem extract were presented as IC50 values at various extract concentrations, except for the enzyme tyrosinase, which was presented as IC55 value at various extract concentrations. All evaluations were performed in triplicate.

The target in the next assay is collagenase. The assay is described as follows: Collagenase inhibition (FALGPA degradation). How it is done:
as §1
The evaluation of collagenase enzyme activity is based on the colorimetric analysis of the degradation of the FALGPA substrate by the enzyme. The absorbance measurements were taken at 335 nm. Phenanthroline (PHE) was used as the control to assess collagenase inhibition, and the IC50 value was quantified as the control.
as §2

For `CC(C)C[C@H](NC(=O)N[C@H](C(=O)N[C@@H](CCC(N)=O)C(=O)N[C@@H](C)C=O)[C@@H]1CCNC(=N)N1)C(=O)O` [ELA, elastatinal], the Elastase % inhibition in the assay with elastase is given as 53 ± 5 ^4%.

As to `Oc1cc(O)c2c(c1)O[C@H](c1ccc(O)c(O)c1)[C@H](O)C2` [EPI, epicatechin], the “HOCl inhibitory concentration at 50%” value in assay [1] is 0.18 ± 0.01 mg/L. Besides, in the assay with hyaluronidase (HYALase), the “HYALase inhibitory concentration at 20% (IC20)” value was 167 ± 6 ^5 mg/L. Further, the “O2^·− inhibitory concentration at 50%” value in assay [2] was found to be 70 ± 5 mg/L. The “NO^· inhibitory concentration at 50%” value in assay [3] is 0.87 ± 0.02 mg/L.

Take `O=C(O)c1cc(O)c(O)c(O)c1` [GA, gallic acid]: the “HOCl inhibitory concentration at 50%” value in assay [1] is given as 3.8 ± 0.3 mg/L. The “HYALase inhibitory concentration at 20% (IC20)” value in the assay with hyaluronidase (HYALase) was 102 ± 4 ^5 mg/L. In assay [2], the “O2^·− inhibitory concentration at 50%” value is 50 ± 3 mg/L. Further, in assay [3], the “NO^· inhibitory concentration at 50%” value is listed as 1.4 ± 0.3 mg/L.

For `O=c1cc(CO)occ1O` [KA, Kojic acid], the Tyrosinase % inhibition with tyrosinase is reported as 49 ± 6 ^3%.

In the case of `c1cnc2c(c1)ccc1cccnc12` [PHE, 1, 10-phenanthroline], the “Collagenase inhibitory concentration at 50%” value at collagenase came out at 83 ± 2 mg/L.
